The results in this text go back to US11357777B2, “Use of sGC stimulators for the treatment of nonalcoholic steatohepatitis (NASH)” (Cyclerion Therapeutics, Inc., priority 2016, dated 2022).

Read-outs that look alike come from different tables or passages of the source.

Series [1] is described as follows: Distribution of sGC stimulators in tissues, rats (liver and plasma by LC-MS/MS). In kind it is in vivo. The note with it: Wistar, rat, 2 h post fifth dose, male rats, read-out: total Liver:Plasma ratio. As to the method:
The purpose of this experiment was to determine compound concentrations in the plasma and tissues of animals dosed with sGC stimulators for 5 days Q.D.
In a first experiment, the sGC stimulator Compound B (described previously in Example 2) was dosed for 5 Days Q.D. to male Wister rats. Rats were divided into four study groups and dosed according to the below table:
The animals were dosed daily for five consecutive days according the table above. On each day of dosing, frozen aliquots of each dosing solution were thawed and the animals were weighed and dosed accordingly. On day 5, two hours post the fifth dose, blood was collected by orbital bleed. Blood samples were collected in EDTA tubes pre-loaded with 5 μL of 100 mM IBMX Plasma was be separated by centrifugation for 10 minutes at 4° C. and then stored at −80° C.
A Ketamine/Xylazine/pbs solution as a 5:1:4 ratio was administered I.P. at 1 ul per gram. Once the rat was fully anesthetized (as determined by checking its reflexes) and while the heart was still beating, a needle was inserted into the left ventricle. Approximately 20 mls of PBS/IBMX/heparin solution were then perfused. The right atrium was snipped, and perfusion continued for approximately 10 additional mls (30 mls total). At this point, the femoral artery was snipped and perfusion was continued until there was no longer blood (only clear fluid) collecting in the abdominal cavity. Several tissues, including liver, were isolated and weighed followed by snap freezing.
A second separate and similar experiment was carried out with Compound C. The structure of Compound C is depicted below. The preparation and characterization of this compound was described in patent application publication WO2014144100, published 18 Sep. 2014.
For this second experiment, rats were divided into four study groups and dosed according to the below table:
Samples were analyzed using liquid chromatography (LC) with tandem mass spectrometric detection (MS/MS) using positive electrospray ionization. The standard curve range was from 0.1 to 400 ng/mL. […]
In order to prepare the tissues for measurement, the naïve livers and the livers isolated after treatment were removed from the −80° C. freezer and placed on liquid nitrogen. The liver weight was recorded and then the tissue placed in a Geno grinding vial containing two 7/16″ steel beads. […] Approximately 200 mg of tissue from each sample was weighed and recorded. […] The samples were analyzed by LC-MS/MS.
Total liver and plasma concentrations were measured and liver concentrations were corrected for total liver weight. Liver: Plasma ratios were determined by dividing liver compound concentration by the plasma compound concentration. […]

Series [2] in a line: Single ascending dose Phase I study in healthy volunteers. In kind it is in vivo, human. The note with it: oral capsule, top-line clinical data. The text has this: In a randomized, double-blind, placebo-controlled, single ascending dose Phase I study enrolling 46 healthy volunteers, participants were randomized 3:1 to receive a single dose of Compound B or placebo administered via an oral capsule.

Series [3] relates to TNFα, IL-6 and IL-10 cytokine levels. The experiment in a line: LPS model of acute inflammation in mice. As to conditions: 10 mg/kg oral gavage; LPS IV 1 h later; blood 2 h after LPS. In kind it is in vivo. On the procedure:
Acute murine models of inflammation have previously been described (see for example, Engelberts I et. al., Lymphokine Cytokine Res. 10(1-2):127-31 (1991) and Durez P et al., J Exp Med. 177:551-5 (1993)). In these models, mice or rats are administered the compound of interest followed by an injection of LPS (LPS stands for lipopolysaccharide, 100 ng IV administration) one hour later. LP S is a component of bacterial cell walls and elicits a rapid and strong systemic inflammatory response. Two hours after LPS injection, blood is collected, plasma and serum are isolated and cytokine levels are measured. The concentrations of TNFα and IL-6 in blood increase after stimulation with bacterial lipopolysaccharide (LP S). Measurement of cytokine production is carried out with either ELISA or cytokine bead assay (CBA).
The sGC stimulator Compound B was assessed in such an animal model using C57BL/6 mice. The structure of Compound B is depicted below:
The ability of Compound B to modulate cytokine release in vivo was assessed. Compound B was administered by oral gavage (formulated in methylcellulose as the carrier) at 1 and 10 mg/kg doses and the levels of the pro-inflammatory cytokines TNFα and IL-6 were measured, as well as the anti-inflammatory cytokine IL-10. Vehicle (V) and dexamethasone (dex, 5 mg/kg) were used as negative and positive controls, respectively, and 10 mice were used per group.

On to `OC(CNc1nc(-c2cc(-c3ccon3)n(Cc3ccccc3F)n2)ncc1F)(C(F)(F)F)C(F)(F)F` [Compound B], for which the Kp in series [1] (1 mg/kg PO Q.D. 5 days) turned out to be 19. In series [1] (10 mg/kg PO Q.D. 5 days), the Kp was determined as 20. For the same molecule, the distribution to tissues result in series [2] is recorded as “evidence of extensive distribution to tissues”. Further, in series [3], the “levels of IL-6” value is “significantly reduced”, the “levels of IL-10” value is reported as “increasing” and the “levels of TNFα” value was “significantly reduced”.
